Assay results as given in publication PMC10970622, “Functional Characterization of Endo- and Exo-Hydrolase Genes in Arabinan Degradation Gene Cluster of Bifidobacterium longum subsp. suis” (International Journal of Molecular Sciences, 2024).

How the values were obtained:
BflsABN43A = biological target: T1, BflsABN43A (Bifidobacterium longum, UniProt A0A087B7X1); assay: TLC of hydrolysis products; type: biochemical; details: 0.5% substrate, optimal conditions (pH 5.0, 45 °C)
T1 construct: gene BLSS_1421; 531 aa (56 kDa) printed; 35-residue signal peptide removed (primer deltaS; starts M-SSNAKN by primer), C-terminal His6, E. coli; caution: same WP id also printed for BflsABF43A (710 aa)
T1 sequence (A0A087B7X1 36-531): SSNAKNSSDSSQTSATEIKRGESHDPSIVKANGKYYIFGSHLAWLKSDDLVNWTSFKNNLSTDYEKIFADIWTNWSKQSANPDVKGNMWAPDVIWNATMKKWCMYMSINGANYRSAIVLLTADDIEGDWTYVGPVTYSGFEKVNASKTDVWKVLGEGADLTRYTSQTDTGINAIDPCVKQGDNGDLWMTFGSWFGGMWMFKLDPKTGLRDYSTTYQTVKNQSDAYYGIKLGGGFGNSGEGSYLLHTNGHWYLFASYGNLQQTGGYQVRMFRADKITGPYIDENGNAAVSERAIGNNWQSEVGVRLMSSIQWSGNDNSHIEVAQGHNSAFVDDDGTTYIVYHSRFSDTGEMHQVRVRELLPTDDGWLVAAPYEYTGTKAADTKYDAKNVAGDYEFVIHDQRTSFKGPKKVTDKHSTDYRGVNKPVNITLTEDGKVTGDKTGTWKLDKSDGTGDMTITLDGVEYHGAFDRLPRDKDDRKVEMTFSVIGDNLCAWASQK

BflsABN43B = biological target: T2, BflsABN43B (Bifidobacterium longum, UniProt A0A087B7X0); assay: TLC of hydrolysis products; type: biochemical; details: 0.5% substrate, optimal conditions (pH 6.0, 50 °C)
T2 construct: gene BLSS_1420; full length, 581 aa, 65 kDa, C-terminal His6, E. coli BL21(DE3); starts MTATTS by primer
T2 sequence (A0A087B7X0 1-581): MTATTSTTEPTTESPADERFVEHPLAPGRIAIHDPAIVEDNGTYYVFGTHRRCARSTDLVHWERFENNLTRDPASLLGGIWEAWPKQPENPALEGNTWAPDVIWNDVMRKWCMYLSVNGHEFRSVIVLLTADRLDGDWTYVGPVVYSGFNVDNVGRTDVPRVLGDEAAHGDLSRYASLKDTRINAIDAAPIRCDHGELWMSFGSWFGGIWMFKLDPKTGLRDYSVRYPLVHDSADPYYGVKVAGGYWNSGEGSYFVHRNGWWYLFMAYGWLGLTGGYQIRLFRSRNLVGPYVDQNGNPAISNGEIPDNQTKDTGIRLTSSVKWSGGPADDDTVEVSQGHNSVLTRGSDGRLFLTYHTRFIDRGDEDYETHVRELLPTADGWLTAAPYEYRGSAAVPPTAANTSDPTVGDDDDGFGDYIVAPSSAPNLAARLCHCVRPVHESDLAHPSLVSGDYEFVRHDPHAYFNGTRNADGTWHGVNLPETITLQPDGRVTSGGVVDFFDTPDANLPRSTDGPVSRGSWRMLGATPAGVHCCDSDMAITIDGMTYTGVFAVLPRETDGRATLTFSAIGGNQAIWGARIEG

Compound: OC[C@@H]1O[C@@H](OC[C@@H]2O[C@@H](OC[C@@H]3O[C@@H](OC[C@@H]4O[C@@H](OC[C@@H]5O[C@@H](OC[C@@H]6OC(O)[C@H](O)[C@H]6O)[C@H](O)[C@H]5O)[C@H](O)[C@H]4O)[C@H](O)[C@H]3O)[C@H](O)[C@H]2O)[C@H](O)[C@H]1O (some centres unmarked) [A6, arabinohexaose]
- TLC of hydrolysis products (BflsABN43A): both ABNs demonstrated detectable hydrolytic activities to produce A2 and arabinotetraose (A4)
- TLC of hydrolysis products (BflsABN43B): both ABNs demonstrated detectable hydrolytic activities to produce A2 and arabinotetraose (A4)
